Measured values as given in ChEMBL document CHEMBL5729264, “Bicyclic compounds” (2022).

Assay: Dual-Glo Luciferase Assay: The Dual-Glo Luciferase Reagent was prepared by transferring the contents of one bottle of Dual-Glo Luciferase Buffer to one bottle of Dual-Glo Luciferase Substrate to create the Dual-Glo Luciferase Reagent. Mixing was performed by inversion until the substrate was thoroughly dissolved. After mixing, the reagent was aliquoted into 15 ml tubes. In the afternoon (24 hrs post compound treatment), the DMEM+medium in the 384 well plates were aspirated by Microplate Washer.Measuring firefly luciferase activity: 20 ul Dual-Glo Luciferase Reagent was added to the 384-well plates. The plates were protected from light to prevent interference with the assay. The plates were shaken for 1 min followed centrifuging plates at 1000 rpm for 30 seconds. After waiting at least 10 minutes, the firefly luminescence was measured by Envision.Measuring renilla luciferase activity: 20 ul Stop-Glo Reagent was added to the 384-well plates. The plates were shaken for 1 min and then centrifuged at 1000 rpm for 30 seconds. After waiting at least 10 minutes, the renilla luminescence was measured by Envision.Compound IC50 and maximum inhibition on the firefly luciferase and renilla luciferase activities were reported separately.

Question: With `C[C@H](CCN(C)C)NC(=O)c1ccc2c(Oc3ccc(C(F)(F)F)cc3)cccc2c1` as the compound, how does the IC50 read?
Answer: < 100 nM

Question: For `C[C@@H](NC(=O)c1ccc2c(Oc3ccc(C(F)(F)F)cc3)cccc2c1)C1CNC1`, which IC50 is on record?
Answer: < 100 nM

Question: Which IC50 does the source give for `O=C(N[C@@H](CO)C1CNC1)c1ccc2c(Oc3ccc(C(F)(F)F)cc3)cccc2c1` here?
Answer: in the range around 2000 nM

Question: With `O=C(N[C@@H](CO)c1ccccn1)c1ccc2c(Oc3ccc(C(F)(F)F)cc3)cccc2c1` as the compound, how does the IC50 read?
Answer: in the range around 550 nM

Question: With `C[C@@H](NC(=O)c1ccc2c(Oc3ccc(C(F)(F)F)cc3)cccc2c1)C1CN(C2CC2)C1` as the compound, how does the IC50 read?
Answer: < 100 nM

Question: For `O=C(NC(CCO)c1ccccn1)c1ccc2c(Oc3ccc(C(F)(F)F)cc3)cccc2c1` (stereo not given), which IC50 is on record?
Answer: < 100 nM

Question: For `O=C(NC(CCO)CCO)c1ccc2c(Oc3ccc(C(F)(F)F)cc3)cccc2c1`, which IC50 is on record?
Answer: < 100 nM

Question: For `C[C@H](NC(=O)c1ccc2c(Oc3ccc(C(F)(F)F)cc3)cccc2c1)C1(F)CNC1`, which IC50 is on record?
Answer: in the range around 2000 nM

Question: Which IC50 does the source give for `C[C@@H](NC(=O)c1ccc2c(Oc3ccc(C(F)(F)F)cc3)cccc2c1)C1CCN(CC(F)F)CC1` here?
Answer: in the range around 550 nM

Question: With `CC(=O)N1CC([C@@H](C)NC(=O)c2ccc3c(Oc4ccc(C(F)(F)F)cc4)cccc3c2)C1` as the compound, how does the IC50 read?
Answer: in the range around 550 nM

Question: Which IC50 does the source give for `O=C(N[C@@H](CCO)c1ccccn1)c1ccc2c(Oc3ccc(C(F)(F)F)cc3)cccc2c1` here?
Answer: < 100 nM

Question: For `COc1cc(Oc2ccc(C(F)(F)F)cc2)c2ncc(C(=O)N[C@H](C)CO)cc2c1`, which IC50 is on record?
Answer: < 100 nM

Question: Which IC50 does the source give for `C[C@@H](CCN)NC(=O)c1ccc2c(Oc3ccc(C(F)(F)F)cc3)cccc2c1` here?
Answer: < 100 nM

Question: For `C[C@H](NC(=O)c1cnc2c(Oc3ccc(C(F)(F)F)cc3)cccc2c1)c1cccc2nc[nH]c12`, which IC50 is on record?
Answer: < 100 nM

Question: Which IC50 does the source give for `C[C@H](CCNCCF)NC(=O)c1ccc2c(Oc3ccc(C(F)(F)F)cc3)cccc2c1` here?
Answer: < 100 nM

Question: For `C[C@@H](NC(=O)c1cnc2c(Oc3ccc(C(F)(F)F)cc3)cccc2c1)c1cccc2nc[nH]c12`, which IC50 is on record?
Answer: in the range around 550 nM

Question: For `C[C@@H](NC(=O)c1ccc2c(Oc3ccc(C(F)(F)F)cc3)cccc2c1)C1(O)CNC1`, which IC50 is on record?
Answer: < 100 nM

Question: With `C[C@@H](CN)NC(=O)c1ccc2c(Oc3ccc(C(F)(F)F)cc3)cccc2c1` as the compound, how does the IC50 read?
Answer: < 100 nM

Question: For `C[C@@H](CCO)NC(=O)c1ccc2c(Oc3ccc(C(F)(F)F)cc3)cccc2c1`, which IC50 is on record?
Answer: < 100 nM

Question: For `C[C@H](CCNCC(F)F)NC(=O)c1ccc2c(Oc3ccc(C(F)(F)F)cc3)cccc2c1`, which IC50 is on record?
Answer: < 100 nM

Question: With `O=C(N[C@H](CO)c1ccccn1)c1ccc2c(Oc3ccc(C(F)(F)F)cc3)cccc2c1` as the compound, how does the IC50 read?
Answer: < 100 nM

Question: Which IC50 does the source give for `O=C(N[C@H](CCO)c1ccccn1)c1ccc2c(Oc3ccc(C(F)(F)F)cc3)cccc2c1` here?
Answer: in the range around 550 nM

Question: With `C[C@@H](NC(=O)c1ccc2c(Oc3ccc(C(F)(F)F)cc3)cccc2c1)c1cccc2ccc(=O)[nH]c12` as the compound, how does the IC50 read?
Answer: < 100 nM

Question: With `C[C@H](NC(=O)c1ccc2c(Oc3ccc(C(F)(F)F)cc3)cccc2c1)C1CN(C2CC2)C1` as the compound, how does the IC50 read?
Answer: in the range around 2000 nM

Question: Which IC50 does the source give for `C[C@@H](NC(=O)c1cnc2c(Oc3ccc(C(F)(F)F)cc3)cccc2c1)c1cccc2ccsc12` here?
Answer: in the range around 550 nM

Question: For `C[C@@H](NC(=O)c1ccc2c(Oc3ccc(C(F)(F)F)cc3)cccc2c1)C1CCN(CCO)CC1`, which IC50 is on record?
Answer: in the range around 550 nM

Question: For `CC(C)N1CCC([C@@H](C)NC(=O)c2ccc3c(Oc4ccc(C(F)(F)F)cc4)cccc3c2)CC1`, which IC50 is on record?
Answer: in the range around 550 nM

Question: Which IC50 does the source give for `CCN1CC([C@H](C)NC(=O)c2ccc3c(Oc4ccc(C(F)(F)F)cc4)cccc3c2)C1` here?
Answer: in the range around 550 nM

Question: For `CCN1CC([C@@H](C)NC(=O)c2ccc3c(Oc4ccc(C(F)(F)F)cc4)cccc3c2)C1`, which IC50 is on record?
Answer: in the range around 550 nM

Question: With `C[C@@H](NC(=O)c1ccc2c(Oc3ccc(C(F)(F)F)cc3)cccc2c1)C1CN(C)C1` as the compound, how does the IC50 read?
Answer: in the range around 550 nM

Question: With `C[C@@H](NC(=O)c1ccc2c(Oc3ccc(C(F)(F)F)cc3)cccc2c1)C1CN(CCO)C1` as the compound, how does the IC50 read?
Answer: in the range around 550 nM

Question: Which IC50 does the source give for `COc1cc(Oc2ccc(C(F)(F)F)cc2)c2ncc(C(=O)NC(CO)c3ccccn3)cc2c1` (stereo not given) here?
Answer: < 100 nM

Question: With `C[C@H](CCN)NC(=O)c1ccc2c(Oc3ccc(C(F)(F)F)cc3)cccc2c1` as the compound, how does the IC50 read?
Answer: < 100 nM

Question: For `C[C@H](NC(=O)c1cc2cccc(Oc3ccc(C(F)(F)F)cc3)c2s1)c1ccccn1`, which IC50 is on record?
Answer: < 100 nM

Question: For `C[C@H](CN)NC(=O)c1ccc2c(Oc3ccc(C(F)(F)F)cc3)cccc2c1`, which IC50 is on record?
Answer: in the range around 550 nM

Question: Which IC50 does the source give for `C[C@H](CO)NC(=O)c1cnc2c(Oc3ccc(C(F)(F)F)cc3)cc(F)c(F)c2c1` here?
Answer: < 100 nM

Question: Which IC50 does the source give for `CC(=O)N1CC([C@H](C)NC(=O)c2ccc3c(Oc4ccc(C(F)(F)F)cc4)cccc3c2)C1` here?
Answer: in the range around 550 nM

Question: With `C[C@H](NC(=O)c1ccc2c(Oc3ccc(C(F)(F)F)cc3)cccc2c1)C1(O)CNC1` as the compound, how does the IC50 read?
Answer: in the range around 550 nM

Question: For `C[C@H](NC(=O)c1ccc2c(Oc3ccc(C(F)(F)F)cc3)cccc2c1)C1CNC1`, which IC50 is on record?
Answer: < 100 nM

Question: Which IC50 does the source give for `C[C@H](CCNCCO)NC(=O)c1ccc2c(Oc3ccc(C(F)(F)F)cc3)cccc2c1` here?
Answer: < 100 nM

Question: For `C[C@H](CCO)NC(=O)c1ccc2c(Oc3ccc(C(F)(F)F)cc3)cccc2c1`, which IC50 is on record?
Answer: < 100 nM

Question: Which IC50 does the source give for `C[C@H](NC(=O)c1ccc2c(Oc3ccc(C(F)(F)F)cc3)cccc2c1)C1CN(CCF)C1` here?
Answer: in the range around 2000 nM

Question: With `NS(=O)(=O)c1ccc2c(Oc3ccc(C(F)(F)F)cc3)cccc2c1` as the compound, how does the IC50 read?
Answer: < 100 nM

Question: Which IC50 does the source give for `C[C@H](NC(=O)c1ccc2c(Oc3ccc(C(F)(F)F)cc3)cccc2c1)C1CN(CC(F)F)C1` here?
Answer: in the range around 2000 nM

Question: Which IC50 does the source give for `C[C@@H](NC(=O)c1ccc2c(Oc3ccc(C(F)(F)F)cc3)cccc2c1)C1CN(CC(F)F)C1` here?
Answer: < 100 nM

Question: Which IC50 does the source give for `CC(C)N1CC([C@@H](C)NC(=O)c2ccc3c(Oc4ccc(C(F)(F)F)cc4)cccc3c2)C1` here?
Answer: in the range around 2000 nM

Question: With `C[C@@H](NC(=O)c1ccc2c(Oc3ccc(C(F)(F)F)cc3)cccc2c1)C1(F)CNC1` as the compound, how does the IC50 read?
Answer: in the range around 550 nM

Question: For `C[C@H](NC(=O)c1ccc2c(Oc3ccc(C(F)(F)F)cc3)cccc2c1)C1CN(CCO)C1`, which IC50 is on record?
Answer: in the range around 550 nM

Question: With `CCNCC[C@@H](C)NC(=O)c1ccc2c(Oc3ccc(C(F)(F)F)cc3)cccc2c1` as the compound, how does the IC50 read?
Answer: < 100 nM

Question: Which IC50 does the source give for `O=C(N[C@H](CO)C1CNC1)c1ccc2c(Oc3ccc(C(F)(F)F)cc3)cccc2c1` here?
Answer: in the range around 550 nM

Question: Which IC50 does the source give for `C[C@H](NC(=O)c1ccc2c(Oc3ccc(C(F)(F)F)cc3)cccc2c1)C1CN(C)C1` here?
Answer: in the range around 2000 nM

Question: Which IC50 does the source give for `CC(C)N1CC([C@H](C)NC(=O)c2ccc3c(Oc4ccc(C(F)(F)F)cc4)cccc3c2)C1` here?
Answer: in the range around 550 nM

Question: For `C[C@@H](NC(=O)c1ccc2c(Oc3ccc(C(F)(F)F)cc3)cccc2c1)C1CN(CCCCO)C1`, which IC50 is on record?
Answer: in the range around 550 nM

Question: With `CNCC[C@@H](C)NC(=O)c1ccc2c(Oc3ccc(C(F)(F)F)cc3)cccc2c1` as the compound, how does the IC50 read?
Answer: < 100 nM

Question: For `C[C@@H](NC(=O)c1ccc2c(Oc3ccc(C(F)(F)F)cc3)cccc2c1)C1CN(CCF)C1`, which IC50 is on record?
Answer: < 100 nM

Question: Which IC50 does the source give for `C[C@@H](NC(=O)c1ccc2c(Oc3ccc(C(F)(F)F)cc3)cccc2c1)C1CCN(C)CC1` here?
Answer: < 100 nM

Question: Which IC50 does the source give for `CCN1CCC([C@@H](C)NC(=O)c2ccc3c(Oc4ccc(C(F)(F)F)cc4)cccc3c2)CC1` here?
Answer: in the range around 550 nM

Question: For `C[C@@H](NC(=O)c1ccc2c(Oc3ccc(C(F)(F)F)cc3)cccc2c1)C1CCN(CCF)CC1`, which IC50 is on record?
Answer: in the range around 550 nM

Question: Which IC50 does the source give for `COc1cc(Oc2ccc(C(F)(F)F)cc2)c2ncc(C(=O)NC(C)C)cc2c1` here?
Answer: < 100 nM

Question: Which IC50 does the source give for `C[C@@H](NC(=O)c1ccc2c(Oc3ccc(C(F)(F)F)cc3)cccc2c1)C1CCNCC1` here?
Answer: < 100 nM
